Reference: patent publication US12331051B2 (priority 2021, dated 2025)

How the values were obtained:
[1] = target: T1, Beta 1 adrenergic receptor (Homo sapiens, UniProt P08588); assay: Functional assay in HEK-293 cells (cAMP); assay type: cell-based
T1 construct: expressed in transfected cells; host or cells: HEK-293
Method: (§1) Neuro-receptor binding and functional effects of the “E559 polymorph” was examined by analyzing binding affinity [Ki (nM)], functional agonist activity [EC50 (nM)], and functional antagonist activity [IC50 (nM)] against a panel of key receptors in neurophysiological disorders. Binding and functional assays were performed at “E559 polymorph” concentrations of 0.0003, 0.003, 0.01, 0.03, 0.1, 0.3, 1, and 10 μM. In binding assays, cell membrane homogenates, expressing each receptor target, were incubated with the corresponding radio-ligand in absence or presence of several concentration of the “E559 polymorph” compound. The measurement of binding affinity of the “E559 polymorph” is represented in TABLE XIII by Ki (nM) which was calculated as percent inhibition of the binding of a radioactively labeled reference ligand at each receptor. In functional assays the HEK-293 cells expressing each receptor target were suspended in buffer and distribute in microplates and incubated for 30 minutes at room temperature or 37° C. in the presence of buffer alone (basal control), the reference agonist or antagonist, or the “E559 polymorph. Following incubation, the cells were lysed and the appropriate fluorescent probe (Ca2+ flux, cAMP, or IP1) were added for 60 minutes to measure the fluorescence transfer at the appropriate wavelength using a microplate reader. The cellular agonist effect (EC50) was calculated as a percent of control response to a known reference agonist and the cellular antagonist effect (IC50) was calculated as a percent inhibition of control reference agonist response for each receptor.

[2] = target: T2, Beta 2 adrenergic receptor (Homo sapiens, UniProt P07550); assay: Functional assay in HEK-293 cells (cAMP); assay type: cell-based
T2 construct: expressed in transfected cells; host or cells: HEK-293
T2 sequence (P07550 whole entry): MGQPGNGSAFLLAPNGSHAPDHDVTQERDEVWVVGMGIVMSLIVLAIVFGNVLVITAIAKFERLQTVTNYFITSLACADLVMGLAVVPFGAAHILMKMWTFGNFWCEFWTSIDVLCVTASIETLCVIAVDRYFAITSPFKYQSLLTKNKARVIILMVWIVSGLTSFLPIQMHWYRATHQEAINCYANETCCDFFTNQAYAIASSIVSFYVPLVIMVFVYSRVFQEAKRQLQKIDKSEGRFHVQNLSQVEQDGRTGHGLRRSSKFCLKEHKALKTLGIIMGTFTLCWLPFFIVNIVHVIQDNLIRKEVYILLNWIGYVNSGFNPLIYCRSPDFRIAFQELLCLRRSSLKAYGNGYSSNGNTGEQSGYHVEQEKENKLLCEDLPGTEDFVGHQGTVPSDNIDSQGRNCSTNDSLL
Method: as §1

D2S dopamine receptor = target: T3, D2S dopamine receptor (Homo sapiens, UniProt P14416); assay: Functional assay in HEK-293 cells (cAMP); assay type: cell-based
T3 construct: expressed in transfected cells; host or cells: HEK-293
T3 sequence (P14416 1-414 isoform P14416-2): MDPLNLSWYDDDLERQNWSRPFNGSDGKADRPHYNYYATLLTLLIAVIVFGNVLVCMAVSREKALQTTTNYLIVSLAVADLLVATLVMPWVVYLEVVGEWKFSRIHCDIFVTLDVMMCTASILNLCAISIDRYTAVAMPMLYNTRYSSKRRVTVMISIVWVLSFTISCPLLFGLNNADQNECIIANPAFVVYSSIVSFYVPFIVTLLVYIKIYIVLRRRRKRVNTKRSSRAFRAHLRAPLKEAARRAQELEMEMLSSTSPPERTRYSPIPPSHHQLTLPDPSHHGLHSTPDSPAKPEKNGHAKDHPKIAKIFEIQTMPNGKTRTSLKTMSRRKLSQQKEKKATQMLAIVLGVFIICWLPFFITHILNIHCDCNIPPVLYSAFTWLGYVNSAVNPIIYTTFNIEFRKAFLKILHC
Method: as §1

5-HT1E = target: T4, 5-HT1E (Homo sapiens, UniProt P28566); assay: Functional assay (Arrestin); assay type: cell-based
T4 construct: expressed in transfected cells; host or cells: HEK-293
T4 sequence (P28566 whole entry): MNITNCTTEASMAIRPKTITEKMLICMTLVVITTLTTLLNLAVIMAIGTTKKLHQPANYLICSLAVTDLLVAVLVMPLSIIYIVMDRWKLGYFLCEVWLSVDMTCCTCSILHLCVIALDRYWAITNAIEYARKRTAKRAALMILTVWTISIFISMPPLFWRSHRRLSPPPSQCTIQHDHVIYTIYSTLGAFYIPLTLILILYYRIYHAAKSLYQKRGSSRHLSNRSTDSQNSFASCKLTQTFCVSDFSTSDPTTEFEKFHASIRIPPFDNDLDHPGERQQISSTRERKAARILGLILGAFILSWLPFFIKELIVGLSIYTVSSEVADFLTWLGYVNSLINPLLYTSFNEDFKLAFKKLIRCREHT

DOI induced HTR in mice = assay: Blockade of DOI-induced HTR; assay type: in vivo, mouse; conditions: 10 min before DOI 1 mg/kg
Method: The “E559 polymorph” was studied for its effect to block the hallucinogenic (HTR) response of a psychedelic 2,5-Dimethoxy-4-iodoamphetamine (DOI) in the mouse HTR model. DOI is a serotonergic hallucinogenic compound used commonly as a positive control in HTR model [Halberstadt et al., Psychopharmacology (Berl). 2013 June; 227(4):727-39]. An HTR study was performed as described in Example 2 as follows: Five groups of mice (n=6-7 per group, 31 total) were either treated with vehicle (saline) or with the “E559 polymorph” at 0.1, 0.3, 1, or 3 mg/kg. Ten minutes later, all of the mice were injected with DOI (1 mg/kg) and then HTR activity was assessed for 30 min. […] All doses of the “E559 polymorph” were effective in blocking the response to DOI in a dose-dependent manner. The data are represented as group means±standard deviation and asterisks indicate statistical significances (*p<0.0001) compared to the vehicle (saline) control (0 mg/kg in FIG. 13A).
The time course of the blockade of the DOI induced HTR by the “E559 polymorph” was examined. An HTR study was performed as described in Example 2 as follows: Two groups of mice (n=6 per group) were either treated with vehicle or with the “E559 polymorph” at 1 mg/kg. Ten minutes later, all of the mice were injected with DOI (1 mg/kg) and then HTR activity was assessed for 30 min. […] The data are represented as group means±standard deviation and asterisks indicate statistical significances (*p<0.0001) compared to the vehicle (saline) control (0 mg/kg in FIG. 13B). The time course of the blockade of the DOI induced HTR by the “E559 polymorph” mirrors the time course of the pharmacokinetics of the “E559 polymorph” in the mouse brain tissue (shown in Example 3).

[3] = system: rat spared nerve injury (SNI) model; assay: Spared nerve injury (SNI) model, von Frey mechanical allodynia; assay type: in vivo
Method: To evaluate the function the “E559 polymorph” in neuropathic pain, mechanical allodynia test was evaluated by von Frey filament in rat spared nerve injury (SNI) model before and after before and after treatment with the “E559 polymorph”. The SNI model and von Frey filament testing were conducted as previously described (Decosterd & Woolf. Pain, 2000, v87, p149-158). Briefly, Animals with a pain threshold of <15 g, assessed using the Von Frey mechanical allodynia testing, were randomly placed in experimental groups. Each rat group consisted of 10 male rats. On day 7 post-surgery treatment was initiated. […]
The pain response (Von Frey testing) was evaluated on day 0 pre-surgery (labelled as Baseline in FIG. 27), on day 6 post-surgery (labelled as Day 6 Pre grouping in FIG. 27), and at 2, 4, 6, and 24 hours after a single oral dose of either vehicle, or the “E559 polymorph” at 0.3, 1, 3, or 10 mg/kg (labelled as BETR-001 in FIG. 27), or gabapentin at 150 mg/kg. […]
Rat groups were treated (via oral administration) with either vehicle, or the “E559 polymorph” at 20 mg/kg (labelled as BETR-001 in FIG. 28), or gabapentin at 150 mg/kg. […] The pain response (Von Frey testing) was evaluated on day 0 pre-surgery (labelled as Baseline in FIG. 28), on day 6 post-surgery (labelled as Day 6 Pre grouping in FIG. 28), and at 2 hours post-treatment given on days 7, 11, and 15 post-surgery. […]

T1 sequence (P08588 whole entry): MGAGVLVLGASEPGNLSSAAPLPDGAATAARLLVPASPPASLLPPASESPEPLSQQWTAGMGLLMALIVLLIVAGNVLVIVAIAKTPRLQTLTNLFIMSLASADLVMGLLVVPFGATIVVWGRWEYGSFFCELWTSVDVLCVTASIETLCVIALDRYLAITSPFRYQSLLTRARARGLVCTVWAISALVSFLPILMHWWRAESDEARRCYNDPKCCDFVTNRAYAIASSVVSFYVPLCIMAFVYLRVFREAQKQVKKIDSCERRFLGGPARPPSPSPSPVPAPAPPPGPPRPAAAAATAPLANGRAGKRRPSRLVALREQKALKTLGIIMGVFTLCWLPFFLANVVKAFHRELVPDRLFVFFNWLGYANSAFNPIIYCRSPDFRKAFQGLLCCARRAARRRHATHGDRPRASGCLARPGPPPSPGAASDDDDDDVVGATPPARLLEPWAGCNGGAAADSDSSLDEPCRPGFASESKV

## CCN(CC)C(=O)[C@@H]1C=C2c3cccc4[nH]c(Br)c(c34)C[C@H]2N(C)C1 [E559, (5R, 8R)-2-Bromo-9,10-didehydro-N,N-diethyl-6-methylergoline-8-carboxamide hemi-D-tartrate]
[1]
  EC50: > 10 µM
  IC50: 0.87 µM
[2]
  EC50: > 10 µM
  IC50: 0.36 µM
D2S dopamine receptor
  EC50: > 10 µM
  IC50: > 10 µM
5-HT1E
  EC50: > 10 µM
5-HT1E; Arrestin, ligand 5-HT, read-out: Functional Assay (agonist) Emax
  Emax: 8.7%
DOI induced HTR in mice; 1 mg/kg
  blockade of DOI induced HTR, time course: almost completely blocked the DOI induced HTR during the first 10 minutes
  time after which blockage of DOI induced HTR was no longer detected: 40 to 60 min
DOI induced HTR in mice; 0.1, 0.3, 1 or 3 mg/kg
  attenuation of DOI-induced HTR: significantly attenuated the ability of DOI to induce the HTR in mice
[3]; oral 20 mg/kg on days 7, 9, 11, 13 and 15 post-surgery
  inhibition of mechanical allodynia, repeated dosing: enhanced the inhibition effect on mechanism allodynia to levels comparable to the gabapentin positive control
[3]; single oral dose 0.3, 1, 3 or 10 mg/kg on day 7 post-surgery, 2 and 4 hours post administration
  inhibition of neuropathic pain (von Frey), single dose: significant dose-dependent inhibition of neuropathic pain
